Data from patent US12195762B2, “Induction of pluripotent cells” (The Scripps Research Institute, priority 2009, dated 2025).
Entries after “also recorded” stand apart in the source; their conditions may differ.

Legend:
[1] = system: human primary fibroblasts (CRL2097 or BJ); experiment: iPSC induction from human primary fibroblasts transduced with the four reprogramming factors, with compound treatment; type: cell-based; details: for effect on reprogramming (in words): 4 factor-mediated reprogramming of fibroblasts
Experimental: We tested known inhibitors of the TGFβ receptor and MEK on 1×10^4 (Feng, B. et al., Cell Stem Cell 4, 301-12 (2009)) human primary fibroblasts (CRL2097 or BJ) that were retrovirally transduced with the 4TFs, for their effect on reprogramming kinetics and efficiency (see FIG. 1a for details). On day 7 (D7) post-infection, the compounds were added, individually or in combinations, and the cultures were examined for iPSCs over the next 1-3 weeks.
The Slc7a1-expressing human fibroblast cells were seeded at 1×10^5 cells/well of a 6 well plate on the day 1. On day 2, 0.25 ml of each retroviral supernatant was added to the cells in the presence of 6 μg/ml polybrene. A second round of transduction was done on day 3. Infection efficiency was estimated by fluorescence microscopy on cells transduced in parallel with GFP or RFP gene-carrying retroviruses. Seven days after initial transduction, fibroblasts were harvested by trypsinization and re-plated at 1×10^4 cells/well of a 6 well plate coated with matrigel (1:50 dilution, cat 354234, BD Biosciences). For compound treatment, the cells were cultured in human reprogramming medium (DMEM/F12, 20% Knockout serum replacer, 1×MEM Non-Essential amino acid, lx glutamax, 0.11 mM 2-Mercaptoethanol, 20 ng/ml bFGF and 1,000 U/ml LIF) and were treated with 2 μM SB431542 (Stemgent), 0.5 μM PD0325901 (Stemgent), 0.5 μM Thiazovivin, or combinations of the compounds. The media were changed every 2-3 days depending on the cell density. Seven days after compound treatment, either the plates were fixed and stained for Alkaline phosphatase (ALP) activity, or stained for protein markers, or the cultures were continued with or without indicated splitting by trypsinization till day 30. For split cultures, the cells were split (1:4) and re-plated onto irradiated CF-1 MEF feeder layer (2.5×10^5 cells/well) in each well of 6 well plate and were split (1:10) again on day 21. The cells were maintained in the same media and compound cocktail described above except for the concentrations of PD0325901 (0.5 μM for D14 and 1 μM for D21) and SB431542 (0.5-1 μM after D14). The iPSC colonies were subsequently maintained in conventional hESC media in the absence of the above compounds.
Alkaline phosphatase staining was performed using ALP detection kit (cat no: SCR004, Chemicon) according to the product instructions. For immunocytochemistry, cells were fixed in 4% paraformaldehyde (10 min, RT), washed twice with PBS, blocked using 5% normal donkey serum (Chemicon) and 0.1% TritonX-100 (15 min, RT) and then treated with primary antibodies overnight at 4° C. The primary antibodies used were anti-NANOG (cat no: AB9220, Chemicon, 1:1,000); anti-OCT4 (cat no: sc-5279, Santa Cruz biotech, 1:200), anti-SSEA 4 (cat no: mab4304, Chemicon, 1:500), anti-Tra-1-81 (cat 560123, BD Biosciences, 1:100), anti-Tra-1-81 (mAb 4381, Chemicon, 1:500), anti-βIII TUBULIN (cat no: MMS-435P, Covance Research Products Inc, 1:1000), anti-PDX 1 (1:500) (a kind gift from Dr. C. Wright), anti-BRACHYURY (cat No: AF2085, R & D, final concentration 0.2 μg/ml). The cells were washed twice with PBS and then treated with secondary antibodies for 1 hour at room temperature. The secondary antibodies used were Alexa fluor 488 donkey anti-rabbit or anti-mouse IgG (Invitrogen, 1:1,000) and Alexa fluor 555 donkey anti-rabbit or anti-mouse IgG (Invitrogen, 1:1,000). Nuclei were stained with 0.5 μg/ml DAPI (Sigma). Images were captured using a Nikon Eclipse TE2000-U/X-cite 120 EXFO microscope with a photometric CoolSnap HQ2 camera.

[2] = system: NHEKs, Neonatal Human Epidermal Keratinocytes; experiment: Reprogramming of NHEKs (TRA-1-81 positive iPSC colonies); type: cell-based; details: for generation of iPSCs / enhancement of reprogramming under OK condition (in words): 2TFs (OK)
Experimental: NHEKs were cultured in a 100 mm tissue culture dish and transduced 3 times (3-4 hours each transduction) with freshly produced lentivirus supernatants. 1,000,000 transduced NHEKs were seeded on the irradiated x-ray inactivated CF1 MEF feeder cells in a 100-mm dish and cultured in KCM and treated with 5 μM PS48, 0.25 mM NaB (Stemgent) and 0.5 μM A-83-01 (Stemgent) for 2 weeks, followed by changing half volume of media to hESCM and supplementing with 5 μM PS48, 0.25 mM NaB and 0.5 μM A-83-01 for another 2 weeks. Then cell culture media were changed to hESCM and supplemented with 5 μM PS48, 0.25 mM NaB, 0.5 μM A-83-01 and 0.5 μM PD0325901 (Stemgent) for additional four weeks. The same OCT4 infected keratinocytes cultured in media without chemicals were used as a control. The culture was split by Accutase (Millipore) and treated with 1 μM Thiazovivin (Stemgent) in the first day after splitting. The iPSC colonies stained positive by Alexa Fluor 555 Mouse anti-Human TRA-1-81 antibody (BD Pharmingen) were picked up for expansion on feeder cells in hESCM and cultured routinely.
NHEKs, Neonatal Human Epidermal Keratinocytes; HUVECs, Human Umbilical Vein Endothelial Cells; AHEKs, Adult Human Epidermal Keratinocytes; AFDCs, Amniotic Fluid Derived Cells. Chemical concentration used: PD, 0.5 μM PD0325901; A83, 0.5 μM A-83-01; PS48, 5 μM PS48; VPA, 0.5 mM Valproic acid; NaB, 0.25 mM Sodium butyrate; Par, 2 μM Parnate; CHIR, 3 μM CHIR99021. For four-factor or three-factor induced reprogramming, NHEKs were seeded at a density of 100,000 transduced cells per 10 cm dish and positive colonies were counted four-week later; For two-factor induced reprogramming, NHEKs were seeded at a density of 100,000 transduced cells per 10 cm dish and positive colonies were counted six-week later; For one-factor induced reprogramming, NHEKs and AHEKs were seeded at a density of 1,000,000 transduced cells per 10 cm dish and positive colonies were counted eight-week later; HUVECs and AFDCs were seeded at a density of 200,000 transduced cells per 10 cm dish and positive colonies were counted six-week later.

Compound: NC(=O)c1ccc(-c2nc(-c3ccc4c(c3)OCO4)c(-c3ccccn3)[nH]2)cc1 [SB431542]
- dose dependence of the effect on iPS cell generation ([1]; 4TFs): dose dependent
- ALP+ colonies with hESC-like morphology ([1]; 4TFs, 1×10^4 cells, day 7 post-treatment (D14), SB431542 2 μM, PD0325901 0.5 μM): 1-2 colonies
- number of granulate (partially reprogrammed) colonies ([1]; 4TFs, 30 days without splitting): outnumbered by several fold the few hESC-like colonies

Compound: O=C(NOC[C@H](O)CO)c1ccc(F)c(F)c1Nc1ccc(I)cc1F [PD0325901]
- NANOG+ colonies at day 14 ([1]; 4TFs, D14, no splitting): no NANOG^+ colonies

Compound: Cc1ccc2c(c1)C(=O)C1(O)CCN(c3ccccc3)C1=N2 (stereo not drawn) [blebbistatin]
- effect on reprogramming (in words) [1]: can be substituted for SB431542 (an ALK5 inhibitor), albeit with a reduced effect

Compound: CCCC(=O)[O-].[Na+] [NaB, Sodium butyrate]
- generation of iPSCs / enhancement of reprogramming under OK condition (in words) [2]: substantially enhance reprogramming; also recorded: much more reliable and efficient

Compound: TGFβ
- effect on reprogramming (in words) [1]: inhibitory effect

Compound: O=C(O)/C=C(/CCc1ccc(Cl)cc1)c1ccccc1 [PS48]
- generation of iPSCs / enhancement of reprogramming under OK condition (in words) [2]: substantially enhance reprogramming
- enhancement of the reprogramming efficiency ([2]; two factors/OK, with 0.5 μM PD0325901 and 0.5 μM A-83-01): about fifteen fold
